For this assay, the target named is T1, Human MTAP (Homo sapiens, UniProt Q13126).
T1 construct: six-histidine tag (His6) (N); made in house; host or cells: E. coli BL21 DE3
T1 sequence (Q13126 1-283): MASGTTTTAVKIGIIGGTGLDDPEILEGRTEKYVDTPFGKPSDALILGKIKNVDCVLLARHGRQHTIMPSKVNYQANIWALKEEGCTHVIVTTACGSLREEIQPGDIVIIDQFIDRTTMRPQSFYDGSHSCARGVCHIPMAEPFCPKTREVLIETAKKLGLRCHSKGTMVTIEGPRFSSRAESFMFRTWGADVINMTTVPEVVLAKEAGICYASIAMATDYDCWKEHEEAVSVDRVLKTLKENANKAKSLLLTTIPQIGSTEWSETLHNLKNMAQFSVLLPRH
Briefly: MTAP substrate assay, coupled spectrophotometric (adenine, xanthine oxidase). To be noted: 2 nM MTAP; for activity at 50 µM: 10 min, read-out: MT-A—50: initial velocity as a percentage of the initial velocity with MTA as substrate; for activity at 50 µM / MT-A—50: initial velocity as a percentage of the initial velocity with MTA as substrate: compound 50 uM, relative to MTA at 50 uM; for MT-A—10: initial velocity as a percentage of the initial velocity with MTA as substrate: compound 10 uM, relative to MTA at 10 uM. It counts as biochemical. As to the method: An enzymatic assay to determine the activity of MTAP against a given substrate was performed. Human MTAP containing an N-terminal six-histidine tag was expressed in E. coli BL21 DE3 cells. The protein was purified to homogeneity by Ni2+ affinity chromatography. Enzymatic activity was measured using a coupled spectrophotometric assay designed to monitor the reaction product adenine (Savarese, T. M., Crabtree, G. W., and Parks, R. E. Jr., (1980) Biochem. Pharmacol. 30, 189-199). Various concentrations of the indicated 5′-deoxymethylthio adenosine (MTA) or substrate were incubated in assay buffer (40 mM potassium phosphate buffer, 1 mM, and DTT 0.8 units/ml xanthine oxidase coupling enzyme) for 5 minutes at 37° C. The reaction was initiated by the addition of MTAP. The exact concentration of enzyme used varied for each substrate tested and ranged from 2 nM to 500 nM. Activity as a function of enzyme concentration was determined for each substrate tested to ensure that the appropriate enzyme concentration was used. Activity was detected by continuous monitoring of absorbance at 305 nm for 10 minutes (ΔE=15,500 M^−1).
Library compounds (10 and 50 uM) were tested using the assay described above with 2 nM MTAP enzyme. The resultant initial velocities are reported as a percentage of the initial velocity observed when MTA is the substrate. MTA controls, 10 and 50 uM concentrations, were run on each plate alongside the library compounds.

Consider `Nc1ncnc2c1ncn2[C@@H]1O[C@H](CSc2ccccc2C2=NCCCN2)[C@@H](O)[C@H]1O` [2(G)(1), (2R, 3R, 4S, 5S)-2-(6-amino-9H-purin-9-yl)-5-({[2-(1,4,5,6-tetrahydropyrimidin-2-yl)phenyl]thio}methyl)-tetrahydrofuran-3,4-diol], for which the activity at 50 µM worked out at 23% and the “MT-A—10: initial velocity as a percentage of the initial velocity with MTA as substrate” value was 8%.

Consider `Nc1ccccc1SC[C@H]1O[C@@H](n2cnc3c(N)ncnc32)[C@H](O)[C@@H]1O` [2(G)(2), (2R, 3R, 4S, 5S)-2-(6-amino-9H-purin-9-yl)-5-{[(2-amino-phenyl)thio]methyl}tetrahydrofuran-3,4-diol], for which the activity at 50 µM amounted to 5% and the “MT-A—10: initial velocity as a percentage of the initial velocity with MTA as substrate” value amounted to 3%.

Regarding `Nc1nc(SC[C@H]2O[C@@H](n3cnc4c(N)ncnc43)[C@H](O)[C@@H]2O)c2[nH]cnc2n1` [2(G)(3), (2R, 3R, 4S, 5S)-2-(6-amino-9H-purin-9-yl)-5-{[(2-amino-7H-purin-6-yl)thio]methyl}tetrahydro-furan-3,4-diol], the activity at 50 µM is 45% and the “MT-A—10: initial velocity as a percentage of the initial velocity with MTA as substrate” value is reported as 46%.

With `CCc1cnc(SC[C@H]2O[C@@H](n3cnc4c(N)ncnc43)[C@H](O)[C@@H]2O)[nH]c1=O` [2(G)(4), 2-({[(2S, 3S, 4R, 5R)-5-(6-amino-9H-purin-9-yl)-dihydroxytetrahydrofuran-2-yl]methyl}thio)-5-ethylpyrimidin-4(3H)-one], the activity at 50 µM worked out at 49% and the “MT-A—10: initial velocity as a percentage of the initial velocity with MTA as substrate” value worked out at 38%.

On to `Cn1nnnc1SC[C@H]1O[C@@H](n2cnc3c(N)ncnc32)[C@H](O)[C@@H]1O` [2(G)(6), (2R, 3R, 4S, 5S)-2-(6-amino-9H-purin-9-yl)-5-{[(1-methyl-1H-tetrazol-5-yl)thio]methyl}tetra-hydrofuran-3,4-diol], for which the activity at 50 µM came to 47% and the “MT-A—10: initial velocity as a percentage of the initial velocity with MTA as substrate” value is 46%.

Regarding `CCCSc1ccc2[nH]c(SC[C@H]3O[C@@H](n4cnc5c(N)ncnc54)[C@H](O)[C@@H]3O)nc2c1` [2(G)(7), (2R, 3R, 4S, 5S)-2-(6-amino-9H-purin-9-yl)-5-({[5-(propylthio)-1H-benzimidazol-2-yl]thio}methyl)tetrahydro-furan-3,4-diol], the activity at 50 µM is 0% and the “MT-A—10: initial velocity as a percentage of the initial velocity with MTA as substrate” value worked out at 3%.

Take `Nc1ncnc2c1ncn2[C@@H]1O[C@H](CSc2ncccn2)[C@@H](O)[C@H]1O` [2(G)(8), (2R, 3R, 4S, 5S)-2-(6-amino-9H-purin-9-yl)-5-[(pyrimidin-2-ylthio)methyl]tetrahydro-furan-3,4-diol]: the activity at 50 µM came to 59% and the “MT-A—10: initial velocity as a percentage of the initial velocity with MTA as substrate” value came out at 54%.

For the compound `Nc1nnc(SC[C@H]2O[C@@H](n3cnc4c(N)ncnc43)[C@H](O)[C@@H]2O)s1` [2(G)(9), (2R, 3R, 4S, 5S)-2-(6-amino-9H-purin-9-yl)-5-{[(5-amino-1,3,4-thiadiazol-2-yl)thio]methyl}tetrahydro-furan-3,4-diol], the activity at 50 µM came to 47% and the “MT-A—10: initial velocity as a percentage of the initial velocity with MTA as substrate” value came out at 34%.

Regarding `Nc1ccc(SC[C@H]2O[C@@H](n3cnc4c(N)ncnc43)[C@H](O)[C@@H]2O)cc1` [2(G)(10), (2R, 3R, 4S, 5S)-2-(6-amino-9H-purin-9-yl)-5-{[(4-aminophenyl)thio]methyl]-tetrahydrofuran-3,4-diol], the activity at 50 µM is 19% and the “MT-A—10: initial velocity as a percentage of the initial velocity with MTA as substrate” value came out at 20%.

`Nc1ncnc2c1ncn2[C@@H]1O[C@H](CSc2nc3cc(Cl)ccc3s2)[C@@H](O)[C@H]1O` [2(G)(11), (2R, 3R, 4S, 5S)-2-(6-amino-9H-purin-9-yl)-5-{[(5-chloro-1,3-benzothiazol-2-yl)thio]methyl}tetrahydro-furan-3,4-diol]: the activity at 50 µM was determined as 25% and the “MT-A—10: initial velocity as a percentage of the initial velocity with MTA as substrate” value is 22%.

In the case of `Nc1ncnc2c1ncn2[C@@H]1O[C@H](CSc2nc3ccccc3s2)[C@@H](O)[C@H]1O` [2(G)(12), (2R, 3R, 4S, 5S)-2-(6-amino-9H-purin-9-yl)-5-[(1,3-benzothiazol-2-ylthio)methyl]tetrahydro-furan-3,4-diol], the activity at 50 µM amounted to 25% and the “MT-A—10: initial velocity as a percentage of the initial velocity with MTA as substrate” value is on record as 24%.

Take `CC(=O)Nc1ccc(SC[C@H]2O[C@@H](n3cnc4c(N)ncnc43)[C@H](O)[C@@H]2O)cc1` [2(G)(13), N-[4-({[(2S, 3S, 4R, 5R)-5-(6-amino-9H-purin-9-yl)-dihydroxytetrahydro-furan-2-yl]methyl}thio)phenyl]acetamide]: the “MT-A—10: initial velocity as a percentage of the initial velocity with MTA as substrate” value turned out to be 19% and the “MT-A—50: initial velocity as a percentage of the initial velocity with MTA as substrate” value came out at 17%.

Take `Nc1ncnc2c1ncn2[C@@H]1O[C@H](CSc2ccc(O)cc2)[C@@H](O)[C@H]1O` [2(G)(14), (2R, 3R, 4S, 5S)-2-(6-amino-9H-purin-9-yl)-5-{[(4-hydroxyphenyl)-thio]-methyl}tetrahydrofuran-3,4-diol]: the activity at 50 µM was found to be 51% and the “MT-A—10: initial velocity as a percentage of the initial velocity with MTA as substrate” value amounted to 16%.

`Nc1ncnc2c1ncn2[C@@H]1O[C@H](CSc2ccc3ccccc3c2)[C@@H](O)[C@H]1O` [2(G)(15)]: the “MT-A—10: initial velocity as a percentage of the initial velocity with MTA as substrate” value is on record as 29% and the “MT-A—50: initial velocity as a percentage of the initial velocity with MTA as substrate” value was found to be 25%.

`COc1ccc(CSC[C@H]2O[C@@H](n3cnc4c(N)ncnc43)[C@H](O)[C@@H]2O)cc1` [2(G)(16), (2R, 3R, 4S, 5S)-2-(6-amino-9H-purin-9-yl)-5-{[(4-methoxybenzyl)-thio]methyl}tetrahydro-furan-3,4-diol]: the activity at 50 µM came out at 60% and the “MT-A—10: initial velocity as a percentage of the initial velocity with MTA as substrate” value is 59%.

Regarding `Nc1ncnc2c1ncn2[C@@H]1O[C@H](CSc2ccc(Br)cc2)[C@@H](O)[C@H]1O` [2(G)(17), (2R, 3R, 4S, 5S)-2-(6-amino-9H-purin-9-yl)-5-{[(4-bromophenyl)-thio]methyl}tetrahydro-furan-3,4-diol], the activity at 50 µM turned out to be 17% and the “MT-A—10: initial velocity as a percentage of the initial velocity with MTA as substrate” value was found to be 21%.

With `Nc1ncnc2c1ncn2[C@@H]1O[C@H](CSc2cccc3ccccc23)[C@@H](O)[C@H]1O` [2(G)(18), (2R, 3R, 4S, 5S)-2-(6-amino-9H-purin-9-yl)-5-[(1-naphthylthio)methyl]tetrahydrofuran-3,4-diol], the activity at 50 µM amounted to 4% and the “MT-A—10: initial velocity as a percentage of the initial velocity with MTA as substrate” value turned out to be 5%.

Take `Nc1ncnc2c1ncn2[C@@H]1O[C@H](CSc2ccc(Cl)cc2)[C@@H](O)[C@H]1O` [2(G)(19), (2R, 3R, 4S, 5S)-2-(6-amino-9H-purin-9-yl)-5-{[(4-chlorophenyl)thio]-methyl}tetrahydro-furan-3,4-diol]: the activity at 50 µM was found to be 17% and the “MT-A—10: initial velocity as a percentage of the initial velocity with MTA as substrate” value stood at 19%.

Turning to `COC(=O)c1ccc(SC[C@H]2O[C@@H](n3cnc4c(N)ncnc43)[C@H](O)[C@@H]2O)cc1` [2(G)(20), methyl 4-({[(2S, 3S, 4R, 5R)-5-(6-amino-9H-purin-9-yl)-5-3,4-dihydroxytetrahydro-furan-2-yl]methyl}thio)benzoate], the activity at 50 µM turned out to be 5% and the “MT-A—10: initial velocity as a percentage of the initial velocity with MTA as substrate” value is on record as 7%.

`CC(C)(C)c1ccc(SC[C@H]2O[C@@H](n3cnc4c(N)ncnc43)[C@H](O)[C@@H]2O)cc1` [2(G)(21), (2R, 3R, 4S, 5S)-2-(6-amino-9H-purin-9-yl)-5-{[(4-tert-butylphenyl)thio]methyl}tetrahydrofuran-3,4-diol]: the activity at 50 µM stood at 9% and the “MT-A—10: initial velocity as a percentage of the initial velocity with MTA as substrate” value was 12%.

In the case of `Cc1cccc(C)c1SC[C@H]1O[C@@H](n2cnc3c(N)ncnc32)[C@H](O)[C@@H]1O` [2(G)(22), (2R, 3R, 4S, 5S)-2-(6-amino-9H-purin-9-yl)-5-{[(2,6-dimethylphenyl)-thio]methyl}tetrahydro-furan-3,4-diol], the activity at 50 µM worked out at 15% and the “MT-A—10: initial velocity as a percentage of the initial velocity with MTA as substrate” value was 3%.

Regarding `Nc1ncnc2c1ncn2[C@@H]1O[C@H](CSc2ccc(F)cc2)[C@@H](O)[C@H]1O` [2(G)(23), (2R, 3R, 4S, 5S)-2-(6-amino-9H-purin-9-yl)-5-{[(4-fluorophenyl)-thio]methyl}tetra-hydrafuran-3,4-diol], the activity at 50 µM was found to be 31% and the “MT-A—10: initial velocity as a percentage of the initial velocity with MTA as substrate” value stood at 21%.

The values above are taken from US20040043959A1, “Combination therapies for treating methylthioadenosine phosphorylase deficient cells” (priority 2002, published 2004).
